pIC50: −log10 of the molar value. Read-outs that look alike come from different tables or passages of the source.
Columns and labels:
Trp-p8 = molecular target: T1, Trp-p8 (Homo sapiens, UniProt Q7Z2W7); assay: Calcium ion uptake / flux (FLIPR) in cells expressing Trp-p8; assay type: cell-based; conditions: for Peak (FLIPR): maximum calcium ion flux at 10 microM
T1 construct: expressed in transfected cells; host or cells: 293 and PC3 cells expressing Trp-p8 (non-expressing controls: 293, PC3, PC3/neo)
T1 sequence (Q7Z2W7 whole entry): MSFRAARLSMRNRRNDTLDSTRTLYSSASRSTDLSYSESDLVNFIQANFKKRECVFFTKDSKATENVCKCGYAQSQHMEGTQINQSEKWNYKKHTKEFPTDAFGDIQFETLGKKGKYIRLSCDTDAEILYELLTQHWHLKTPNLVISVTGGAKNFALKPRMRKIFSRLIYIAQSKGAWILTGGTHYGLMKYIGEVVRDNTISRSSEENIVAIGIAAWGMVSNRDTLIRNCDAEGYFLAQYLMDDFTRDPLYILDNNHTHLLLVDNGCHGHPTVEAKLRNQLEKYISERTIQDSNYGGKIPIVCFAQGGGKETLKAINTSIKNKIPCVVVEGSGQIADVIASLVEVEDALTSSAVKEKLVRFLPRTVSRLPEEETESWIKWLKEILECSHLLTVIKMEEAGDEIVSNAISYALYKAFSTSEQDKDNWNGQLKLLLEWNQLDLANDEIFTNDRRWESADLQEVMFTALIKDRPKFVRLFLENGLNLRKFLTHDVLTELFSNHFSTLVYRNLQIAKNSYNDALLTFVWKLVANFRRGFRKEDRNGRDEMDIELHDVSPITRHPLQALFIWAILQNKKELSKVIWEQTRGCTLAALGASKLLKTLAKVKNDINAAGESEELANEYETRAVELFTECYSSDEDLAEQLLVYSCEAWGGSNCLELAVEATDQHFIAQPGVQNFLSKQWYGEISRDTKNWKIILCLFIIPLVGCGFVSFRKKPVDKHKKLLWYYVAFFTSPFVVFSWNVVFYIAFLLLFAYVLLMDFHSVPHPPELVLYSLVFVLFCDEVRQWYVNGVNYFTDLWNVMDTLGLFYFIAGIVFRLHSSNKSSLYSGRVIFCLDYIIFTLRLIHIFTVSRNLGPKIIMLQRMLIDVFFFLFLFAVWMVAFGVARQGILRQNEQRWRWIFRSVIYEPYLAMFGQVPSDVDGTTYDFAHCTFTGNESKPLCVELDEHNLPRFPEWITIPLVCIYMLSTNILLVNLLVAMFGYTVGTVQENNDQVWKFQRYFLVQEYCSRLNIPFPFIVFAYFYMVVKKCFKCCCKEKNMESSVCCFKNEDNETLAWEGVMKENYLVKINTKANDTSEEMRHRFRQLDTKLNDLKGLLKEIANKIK
Text: General methods and materials disclosed in R. Skyryma, et al., J. Physiology, 2000, 527.1, 71-83, for assessing and measuring calcium ion flux or cell uptake, and induction of apoptosis were adapted for use in the present disclosure and as illustrated herein. Other test methods and procedures such as described below, including cell line culturing, transfection, and in vivo and in vitro tumor growth inhibition, are readily apparent to one of ordinary skill in the art upon comprehending the disclosure.
Calcium ion uptake experiments were conducted as follows. Calcium uptake was measured for cells expressing Trp-p8 tumor antigen and for cells not expressing Trp-p8 tumor antigen after each cell line was contacted with cool-genic compounds of the present disclosure. […] Cells not expressing tumor antigen had essentially no observable calcium uptake over all of the cool-genic compound concentrations. […] Cell lines included non-expressing lines: 293, PC3, and PC3/neo; and tumor antigen expressing lines: […].

PC3/Trp-p8.clone 21 = assay: IC50 on PC3/Trp-p8.clone 21; assay type: cell-based; conditions: Homo sapiens, PC3/Trp-p8.clone 21, in duplicate
293/Trp-p8.clone 10 = assay: IC50 on 293/Trp-p8.clone 10; assay type: cell-based, human; conditions: read-out: IC50 293/Trp-p8.c10
Description: (§1) Human Cell Killing in vitro by Compounds that Activate Trp-p8. Referring to the Figures, in FIG. 1 the effectiveness of selected cool-genic compounds in human cell killing was evaluated. The order and potency of cool-genic compounds were compared in two related human cell lines, one was 293 cells expressing Trp-p8 and a second was matched 293 cells lacking (not expressing) Trp-p8 used as a control. There were about 50,000 cells per well at plating. The cool-genic compounds were added at plating. The cells were treated by exposing the cells to the individual compounds at varying concentrations over about 0.1 to about 1,000 microM for 72 hours. […] FIGS. 1A and 1C show the response of cells expressing Trp-p8 and treated with the indicated numbered or named coolgenic compounds. FIGS. 1B and 1D show the response of cells without (not expressing) Trp-p8 and also treated with the indicated coolgenic compounds. […] Compound IIa4-1 had the best kill (IC50<1 microM) for cells expressing Trp-p8.

[1] = tested on: 293 cells expressing Trp-p8; assay: Human cell killing in vitro, 293 cells expressing Trp-p8; assay type: cell-based
Description: as §1

293/Trp-p8.clone 18 = assay: IC50 on 293/Trp-p8.clone 18; assay type: cell-based, human; conditions: read-out: IC50 293/Trp-p8.c18
Description: as §1

PC3/Trp-p8 = PC3/Trp-p8 cell killing; assay type: cell-based, human

| SMILES | Peak (FLIPR) (Trp-p8) | pIC50 (293/Trp-p8.clone 10; Homo sapiens) | pIC50 (293/Trp-p8.clone 18; Homo sapiens) | also measured |
| --- | --- | --- | --- | --- |
| CC1CCC(C(C)C)C(C(=O)O)C1 (centres unmarked) [Compound V-1] | 9,600 |  |  |  |
| CC1CCC(C(C)C)C(C(=O)OCCO)C1 (centres unmarked) [Compound V-2] | 17,000 |  |  |  |
| CC1CCC(C(C)C)C(C(=O)OCCOCCO)C1 (centres unmarked) [Compound V-4] | 17,500 |  |  |  |
| CNC(=O)C(C)(C(C)C)C(C)C [III-1] | 5,000 |  |  |  |
| COc1ccc(NC(=O)C2CC(C)CCC2C(C)C)cc1 (centres unmarked) [IIa4-1, 2-Isopropyl-5-methyl-cyclohexanecarboxylic acid(4-methoxy-phenyl)-amide] | 31,000 | 6.38 | 6.24 | pIC50 (PC3/Trp-p8.clone 21): 5.78; 293/Trp-p8 Cell Killing [1]: Yes; pIC50 ([1]; Homo sapiens, HEK293, 72 hours, about 50,000 cells per well, read-out: IC50 (kill) for cells expressing Trp-p8): > 6.00; pIC50 (293/Trp-p8.clone 18): 6.35; PC3/Trp-p8 Cell Killing (PC3/Trp-p8): Yes; calcium uptake (Trp-p8; cells expressing Trp-p8, about 0.0001 to about 10 microM): particularly high calcium uptake |
| CC(C)[C@@H]1CC[C@@H](C)C[C@H]1C(=O)Nc1ccccc1 [IIa4-2] |  | 5.49 | 5.47 |  |
| CC(C)[C@@H]1CC[C@@H](C)C[C@H]1C(=O)Nc1ccc(O)cc1 [IIa4-3] |  | 5.91 | 5.98 | pIC50 (PC3/Trp-p8.clone 21): 5.37 |
| CC(C)c1ccc(NC(=O)[C@@H]2C[C@H](C)CC[C@H]2C(C)C)cc1 [IIa4-4] |  | 6.12 | 6.01 | pIC50 (PC3/Trp-p8.clone 21): 5.49 |
| CC(C)[C@@H]1CC[C@@H](C)C[C@H]1C(=O)Nc1ccc(Cl)cc1 [IIa4-5] |  | 5.70 | 4.76 |  |
| CC(C)[C@@H]1CC[C@@H](C)C[C@H]1C(=O)Nc1ccc(F)cc1 [IIa4-6] |  | 5.45 | 5.42 |  |
| Cc1ccc(NC(=O)[C@@H]2C[C@H](C)CC[C@H]2C(C)C)cc1 [IIa4-7] |  | 5.92 | 5.94 |  |
| CCc1ccc(NC(=O)[C@@H]2C[C@H](C)CC[C@H]2C(C)C)cc1 [IIa4-8] |  | 6.14 | 6.17 |  |
| CC1CCC(C(C)C)C(C(=O)Nc2ccc(N3CCOCC3)cc2)C1 (centres unmarked) [IIa4-9, 2-Isopropyl-5-methyl-cyclohexanecarboxylic acid (4-morpholin-4-yl-phenyl)-amide] |  | 5.89 | 5.84 |  |
| CCC(C)c1ccc(NC(=O)[C@@H]2C[C@H](C)CC[C@H]2C(C)C)cc1 (some centres unmarked) [IIa4-10, 2-Isopropyl-5-methyl-cyclohexanecarboxylic acid(4-sec-butyl-phenyl)-amide] |  | 5.44 | 5.97 |  |
| CC(C)[C@@H]1CC[C@@H](C)C[C@H]1C(=O)Nc1ccc(C(C)(C)C)cc1 [IIa4-11, 2-Isopropyl-5-methyl-cyclohexanecarboxylic acid(4-tert-butyl-phenyl)-amide] |  | 5.91 | 5.85 |  |
| CCCc1ccc(NC(=O)[C@@H]2C[C@H](C)CC[C@H]2C(C)C)cc1 [IIa4-12, 2-Isopropyl-5-methyl-cyclohexanecarboxylic acid(4-propyl-phenyl)-amide] |  | 5.25 | 5.31 | pIC50 (PC3/Trp-p8.clone 21): 4.89 |
| COc1ccc(NC(=O)[C@@H]2C[C@H](C)CC[C@H]2C(C)C)cc1F [IIa6-1] |  | 6.10 | 6.22 |  |
| COc1ccc(NC(=O)C2CC(C)CCC2C(C)C)cc1Cl (centres unmarked) [IIa6-2, 2-Isopropyl-5-methyl-cyclohexanecarboxylic acid(3-chloro-4-methoxy-phenyl)-amide] |  |  |  | pIC50 (293/Trp-p8.clone 10): 5.51; pIC50 (293/Trp-p8.clone 18): 5.59 |

| SMILES | Peak (FLIPR) (Trp-p8) | pIC50 (293/Trp-p8.clone 10; Homo sapiens) | pIC50 (293/Trp-p8.clone 18; Homo sapiens) | also measured |
| --- | --- | --- | --- | --- |
| CC1CCC(C(C)C)C(C(=O)Nc2ccc3c(c2)CCC3)C1 (centres unmarked) [IIa6-3, 2-Isopropyl-5-methyl-cyclohexanecarboxylic acid indan-5-ylamide] |  | 5.87 | 5.77 |  |
| Cc1cc(NC(=O)[C@@H]2C[C@H](C)CC[C@H]2C(C)C)ccc1C(C)C [IIa6-4, 2-Isopropyl-5-methyl-cyclohexanecarboxylic acid(4-isopropyl-3-methyl-phenyl)-amide] |  | 5.30 | 5.36 |  |
| COc1ccccc1NC(=O)[C@@H]1C[C@H](C)CC[C@H]1C(C)C [IIa8-1] |  | 4.78 | 4.76 |  |
| COc1cccc(NC(=O)[C@@H]2C[C@H](C)CC[C@H]2C(C)C)c1 [IIa10-1] |  | 5.42 | 5.43 |  |
| CC(C)[C@@H]1CC[C@@H](C)C[C@H]1C(=O)Nc1cccc(F)c1 [IIa10-2] |  | 5.20 | 5.54 |  |
| COc1ccc(NC(=O)[C@@H]2C[C@H](C)CC[C@H]2C(C)C)c(C)c1 [IIa12-1] |  | 5.94 | 6.03 |  |
| CCNC(=O)C1CC(C)CCC1C(C)C (centres unmarked) [IIb-1] | 25,000 |  |  |  |
| CC1CCC(C(C)C)C(C(=O)NC(C)C)C1 (centres unmarked) [IIb-2] | 25,100 |  |  | 293/Trp-p8 Cell Killing [1]: Yes; PC3/Trp-p8 Cell Killing (PC3/Trp-p8): Yes |
| CC1CCC(C(C)C)C(C(=O)NC(C)(C)CO)C1 (centres unmarked) [IIb-3] | 25,100 |  |  | 293/Trp-p8 Cell Killing [1]: Yes; PC3/Trp-p8 Cell Killing (PC3/Trp-p8): Yes |
| CC1CCC(C(C)C)C(C(=O)NC(C)(C)C)C1 (centres unmarked) [IIb-4] | 25,100 |  |  | 293/Trp-p8 Cell Killing [1]: Yes |
| CCC(C)NC(=O)C1CC(C)CCC1C(C)C (centres unmarked) [IIb-5] | 23,300 |  |  |  |
| CCCCCCCP(=O)(C(C)CC)C(C)CC (centres unmarked) [IV-1] | 31,000 |  |  | 293/Trp-p8 Cell Killing [1]: Yes |
| CCCCCP(=O)(C(C)CC)C(C)CC (centres unmarked) [IV-2] | 29,000 |  |  |  |
| CCCCCCP(=O)(C(C)CC)C(C)CC (centres unmarked) [IV-3] | 22,000 |  |  |  |
| O=C1NC(c2cccc([N+](=O)[O-])c2)=CCN1c1ccccc1O [Icilin, 3-(2-Hydroxy-phenyl)-6-(3-nitro-phenyl)-3,4-dihydro-1H-pyrimidin-2-one, reference compound] | 20,000 | 4.10 |  |  |
| CCOC(=O)CNC(=O)C1CC(C)CCC1C(C)C (centres unmarked) [XIII-1] | 29,000 |  |  | 293/Trp-p8 Cell Killing [1]: Yes; PC3/Trp-p8 Cell Killing (PC3/Trp-p8): Yes |
| COC(=O)CNC(=O)C1CC(C)CCC1C(C)C (centres unmarked) [XIII-2] | 25,000 |  |  |  |

Source: patent publication US7893072B2, “Trp-p8 active compounds and therapeutic treatment methods” (Genentech, Inc., priority 2003, dated 2011)
